Here are results for 27 molecules from patent publication US9255110B2 (Hoffmann-La Roche Inc., priority 2010, dated 2016).

Structures can show the parent of a compound that is named as a salt.

IRAK-4, sequence (Q9NWZ3 whole entry, species assumed): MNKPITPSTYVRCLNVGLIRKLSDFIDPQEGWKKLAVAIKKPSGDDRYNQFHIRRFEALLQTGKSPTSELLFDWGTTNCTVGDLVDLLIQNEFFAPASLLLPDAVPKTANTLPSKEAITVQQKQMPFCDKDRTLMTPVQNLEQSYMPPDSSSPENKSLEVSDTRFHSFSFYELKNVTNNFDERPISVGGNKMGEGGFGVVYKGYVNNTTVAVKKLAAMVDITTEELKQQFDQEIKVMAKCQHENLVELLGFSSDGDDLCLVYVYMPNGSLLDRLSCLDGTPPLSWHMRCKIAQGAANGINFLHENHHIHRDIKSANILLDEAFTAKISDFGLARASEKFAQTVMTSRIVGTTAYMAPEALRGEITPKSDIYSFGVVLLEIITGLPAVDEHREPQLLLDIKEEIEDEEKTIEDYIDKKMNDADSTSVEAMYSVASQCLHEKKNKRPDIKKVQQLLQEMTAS

The experiment deals with IRAK-4 (Homo sapiens (Human), UniProt Q9NWZ3). Kind of experiment: In vitro IRAK-4 kinase assay. Type of experiment: biochemical. The note with it: purified recombinant IRAK-4, 50 uM ATP, 33P peptide phosphorylation. Here is the method:
Purified recombinant IRAK-4 protein was incubated with 250 uM synthetic peptide ([…]) in 30 ul of kinase buffer including (20 mM MOPS pH7.2, 25 mM beta glycerol phosphate, 5 mM EGTA, 1 mM sodium orthovanadate, 1 mM DTT, 50 uM ATP, 20 mM MgCl2, 10 uCi γ-^33P, 0.1% BSA) for the indicated time. For purified recombinant IRAK-1 protein kinase assay, 50 uM ATP was used. A 25 ul aliquot of the reaction mixture was transferred on to p81 phosphocellulose squares (Upstate Biotechnology, Lake Placid, N.Y.). The assay squares were washed three times with 0.75% phosphoric acid and once with acetone. Enzyme activity was measured by determining the bound radioactivity by liquid scintillation counting.
Turning to `CC(C)COc1ccc(Cl)cc1NC(=O)c1cnn2cccnc12` [Example 135, Pyrazolo[1,5-alpha]pyrimidine-3-carboxylic acid (5-chloro-2-isobutoxy-phenyl)-amide], the IC50 is 2.28 µM.

Take `O=C(Nc1cc(Cl)ccc1N1CCCCC1)c1cnn2cccnc12` [Example 79, Pyrazolo[1,5-alpha]pyrimidine-3-carboxylic acid (5-chloro-2-piperidin-1-yl-phenyl)-amide]: the IC50 amounted to 0.314 µM.

With `O=C(Nc1cc(Cl)ccc1Oc1cccc(O)c1)c1cnn2cccnc12` [Example 156, Pyrazolo[1,5-alpha]pyrimidine-3-carboxylic acid [5-chloro-2-(3-hydroxy-phenoxy)-phenyl]-amide], the IC50 was 4.05 µM.

On to `NCc1ccc(-c2ccc(Cl)cc2NC(=O)c2cnn3cccnc23)cc1` [Example 46, Pyrazolo[1,{tildeover (5)}alpha] pyrimidine-3-carboxylic acid (4′-aminomethyl-4-chloro-biphenyl-2-yl)-amide], for which the IC50 stood at 0.081 µM.

Consider `COc1cc2ncccc2cc1NC(=O)c1csc2cnc(N(CCO)C(C)C)nc12` [Example 57, 2-[(2-Hydroxy-ethyl)-isopropyl-amino]-thieno[3,2-d]pyrimidine-7-carboxylic acid (7-methoxy-quinolin-6-yl)-amide], for which the IC50 turned out to be 0.127 µM.

For the molecule `O=C(Nc1cc(Cl)ccc1N1CCCCC1CO)c1cnn2cccnc12` (stereo not drawn) [Example 164, Pyrazolo[1,5-alpha]pyrimidine-3-carboxylic acid [5-chloro-2-(2-hydroxymethyl-piperidin-1-yl)-phenyl]-amide], the IC50 is 4.85 µM.

For the molecule `COc1ccc(Cl)cc1NC(=O)c1csc2cncnc12` [Example 128, Thieno[3,2-d]pyrimidine-7-carboxylic acid (5-chloro-2-methoxy-phenyl)-amide], the IC50 was found to be 2.2 µM.

Regarding `O=C(Nc1cc(Cl)ccc1N1CCC(CO)C1)c1cnn2cccnc12` (stereo not drawn) [Example 106, Pyrazolo[1,5-alpha]pyrimidine-3-carboxylic acid [5-chloro-2-(3-hydroxymethyl-pyrrolidin-1-yl)-phenyl]-amide], the IC50 turned out to be 0.65 µM.

On to `COc1cc(OC)c(NC(=O)c2cnn3cccnc23)cc1Cl` [Example 142, Pyrazolo[1,5-alpha]pyrimidine-3-carboxylic acid (5-chloro-2,4-dimethoxy-phenyl)-amide], for which the IC50 is 2.74 µM.

With `COc1ccc(Cl)cc1NC(=O)c1csc2ccc(NCCO)nc12` [Example 162, 5-(2-Hydroxy-ethylamino)-thieno[3,2-beta]pyridine-3-carboxylic acid (5-chloro-2-methoxy-phenyl)-amide], the IC50 came out at 4.66 µM.

As to `CC(N)C1CCN(c2ccc(Cl)cc2NC(=O)c2cnn3cccnc23)C1` (stereo not drawn) [Example 148, Pyrazolo[1,5-alpha]pyrimidine-3-carboxylic acid {2-[3-(1-amino-ethyl)-pyrrolidin-1-yl]-5-chloro-phenyl}-amide hydrochloride], the IC50 is 3.08 µM.

Regarding `COc1ccc(NC(C)=O)cc1NC(=O)c1cnn2cccnc12` [Example 173, Pyrazolo[1,5-alpha]pyrimidine-3-carboxylic acid (5-acetylamino-2-methoxy-phenyl)-amide], the IC50 was 7.7 µM.

In the case of `COc1cc(C(=O)NCCCO)ccc1NC(=O)c1cnn2cccnc12` [Example 105, Pyrazolo[1,5-alpha]pyrimidine-3-carboxylic acid [4-(3-hydroxy-propylcarbamoyl)-2-methoxy-phenyl]-amide], the IC50 turned out to be 0.64 µM.

Regarding `COCCOc1ccc(Cl)cc1NC(=O)c1cnn2cccnc12` [Example 124, Pyrazolo[1,5-alpha]pyrimidine-3-carboxylic acid [5-chloro-2-(2-methoxy-ethoxy)-phenyl]-amide], the half-inhibitory concentration (IC50) came out at 1.71 µM.

In the case of `O=C(Nc1cc2ccccc2cc1OCCCO)c1cnn2cccnc12` [Example 80, Pyrazolo[1,5-alpha]pyrimidine-3-carboxylic acid [3-(3-hydroxy-propoxy)-naphthalen-2-yl]-amide], the IC50 stood at 0.327 µM.

Regarding `CN(CCO)c1ccc(Cl)cc1NC(=O)c1cnn2cccnc12` [Example 129, Pyrazolo[1,5-alpha]pyrimidine-3-carboxylic acid {5-chloro-2-[(2-hydroxy-ethyl)-methyl-amino]-phenyl}-amide], the IC50 is 2.2 µM.

On to `O=C(Nc1cc2cccnc2cc1OCCCO)c1csc2cncnc12` [Example 58, Thieno[3,2-d]pyrimidine-7-carboxylic acid [7-(3-hydroxy-propoxy)-quinolin-6-yl]-amide], for which the IC50 is 0.131 µM.

For `COc1cc2ncccc2cc1NC(=O)c1csc2cnc(N(C)C(C)C)nc12` [Example 85, 2-(Isopropyl-methyl-amino)-thieno[3,2-d]pyrimidine-7-carboxylic acid (7-methoxy-quinolin-6-yl)-amide], the IC50 worked out at 0.432 µM.

On to `O=C(Nc1cccc(NCCO)c1N1CCCCC1)c1cnn2cccnc12` [Example 114, Pyrazolo[1,{tildeover (5)}alpha] pyrimidine-3-carboxylic acid [3-(2-hydroxy-ethylamino)-2-piperidin-1-yl-phenyl]-amide], for which the IC50 was 1.03 µM.

Turning to `COc1cc(-c2ccccc2)c(C)cc1NC(=O)c1cnn2cccnc12` [Example 167, Pyrazolo[1,5-alpha]pyrimidine-3-carboxylic acid (5-methoxy-2-methyl-biphenyl-4-yl)-amide], the IC50 was 5.94 µM.

With `O=C(Nc1cc(Cl)ccc1OCCO)c1cnn2cccnc12` [Example 179, Pyrazolo[1,5-alpha]pyrimidine-3-carboxylic acid [5-chloro-2-(2-hydroxy-ethoxy)-phenyl]-amide], the IC50 was 5 µM.

`O=C(Nc1cc(Cl)ccc1OCCCCO)c1cnn2cccnc12` [Example 87, Pyrazolo[1,5-alpha]pyrimidine-3-carboxylic acid [5-chloro-2-(4-hydroxy-butoxy)-phenyl]-amide]: the half-inhibitory concentration (IC50) worked out at 0.437 µM.

On to `COc1cc(C(=O)N(C)C)ccc1NC(=O)c1cnn2cccnc12` [Example 172, Pyrazolo[1,5-alpha]pyrimidine-3-carboxylic acid (4-dimethylcarbamoyl-2-methoxy-phenyl)-amide], for which the IC50 was 7.65 µM.

Turning to `O=C(Nc1cc(Cl)ccc1-c1cccc(O)c1)c1cnn2cccnc12` [Example 125, Pyrazolo[1,5-alpha]pyrimidine-3-carboxylic acid (4-chloro-3′-hydroxy-biphenyl-2-yl)-amide], the IC50 was determined as 2.05 µM.

For `O=C(Nc1cc(Cl)ccc1OC1CCC(O)CC1)c1cnn2cc(CCO)cnc12` (stereo not drawn) [Example 147, 6-(2-Hydroxy-ethyl)-pyrazolo[1,5-alpha]pyrimidine-3-carboxylic acid [5-chloro-2-(4-hydroxy-cyclohexyloxy)-phenyl]-amide], the IC50 worked out at 3.04 µM.

As for `CN(CCCO)c1ccc(Cl)cc1NC(=O)c1cnn2cccnc12` [Example 149, Pyrazolo[1,5-alpha]pyrimidine-3-carboxylic acid {5-chloro-2-[(3-hydroxy-propyl)-methyl-amino]-phenyl}-amide], the IC50 was 3.4 µM.

As to `O=C(Nc1cc(Cl)ccc1OCCCO)c1csc2cncnc12` [Example 139, Thieno[3,2-d]pyrimidine-7-carboxylic acid [5-chloro-2-(3-hydroxy-propoxy)-phenyl]-amide], the IC50 was found to be 2.45 µM.

Usually IC50 stands for the concentration needed to halve the response being measured.
